Results taken from ChEMBL document CHEMBL3272091, “Ergot alkaloids. Synthesis of 6-alkyl-8-ergolenes and 6-methyl-8-aminoergolines as potential prolactin inhibitors” (1977).
Activity calls are given as the source filed them. No cut-off for these calls is given here.

Assays:
Rattus norvegicus [1] = assay: Prolactin stimulation ability in Sprague-Dawley rat at 10 ug/ml, ip administered 18 hrs post reserpine treatment measured after 1 hr by RIA; assay type: functional, organism-based
Rattus norvegicus [2] = assay: Prolactin inhibition ability in Sprague-Dawley rat at 10 ug/ml, ip administered 18 hrs post reserpine treatment measured after 1 hr by RIA; assay type: functional
Rattus norvegicus [3] = assay: Prolactin inhibition ability in Sprague-Dawley rat at 10 ug/ml, ip administered 18 hrs post reserpine treatment measured after 1 hr by RIA relative to lergotrile; assay type: functional
Rattus norvegicus [4] = assay: Prolactin inhibition ability in Sprague-Dawley rat at 10 ug/ml, ip administered 18 hrs post reserpine treatment measured after 1 hr by RIA relative to ergoconine; assay type: functional

| Compound | inhibition (Rattus norvegicus [1]) | inhibition (INH) (Rattus norvegicus [2]) [%] | inhibition (INH) (Rattus norvegicus [3]) [%] | inhibition (INH) (Rattus norvegicus [4]) [%] |
| --- | --- | --- | --- | --- |
| CC(=O)N1CC(CO)=C[C@@H]2c3cccc4[nH]cc(c34)C[C@H]21 | Active |  |  |  |
| CCCN1CC(CO)=C[C@@H]2c3cccc4[nH]cc(c34)C[C@H]21 |  | 72 | 77 |  |
| CN1C[C@H](NC(=O)CBr)C[C@@H]2c3cccc4[nH]cc(c34)C[C@H]21 | Active |  |  |  |
| OCC1=C[C@@H]2c3cccc4[nH]cc(c34)C[C@H]2NC1 |  | 58 |  | 67 |
| CN1C[C@H](N)C[C@@H]2c3cccc4[nH]cc(c34)C[C@H]21 |  | 57 |  |  |
| N#CN1CC(CO)=C[C@@H]2c3cccc4[nH]cc(c34)C[C@H]21 |  | 25 |  | 67 |
| OCC1=C[C@@H]2c3cccc4[nH]cc(c34)C[C@H]2N(Cc2ccccc2)C1 |  |  | 60 |  |
| CCC(=O)N1CC(CO)=C[C@@H]2c3cccc4[nH]cc(c34)C[C@H]21 |  |  | 77 |  |
| CCOC(=O)CN1CC(CO)=C[C@@H]2c3cccc4[nH]cc(c34)C[C@H]21 |  | 14 | 77 |  |
| CCN1CC(CO)=C[C@@H]2c3cccc4[nH]cc(c34)C[C@H]21 |  | 63 | 77 |  |
| CN1C[C@H](NC(=O)CCl)C[C@@H]2c3cccc4[nH]cc(c34)C[C@H]21 | Active |  |  |  |
| CN1CC(CO)=C[C@@H]2c3cccc4[nH]cc(c34)C[C@H]21 |  | 71 |  | 75 |
